Source: patent US7393827B2, “Pharmaceutical compositions and methods for restoring β-cell mass and function” (Diakine Therapeutics, Inc., priority 2004, dated 2008)
“Also recorded” adds a separate entry of the source. Where no end group is shown, it is not given here.

Experiments:
[1] = test system: overt diabetic NOD (Non-Obese Diabetic) mice; settings: previously overt diabetic NOD mice; literature study; cited from earlier work
[2] = test system: NOD mouse pancreatic sections; test: Brdu staining of NOD mouse pancreatic sections (cell proliferation in vivo); settings: diabetic NOD mice treated 28 days via mini-pumps; Brdu 50 mg/kg I.P., tissue 24 hours later
Protocol: FIG. 6 depicts results of Brdu staining of NOD mouse pancreatic sections treated with saline (control), Ex-4 alone, LSF alone and LSF and Ex-4 combined, respectively.
Ex-4/LSF-associated cell proliferation in vivo was evaluated. Diabetic NOD mice that were treated with Ex-4 alone, Ex-4 plus LSF, LSF alone and normal saline for 28 days via mini-pumps were injected with Brdu (50 mg/kg) I.P. 24 hours later, pancreatic tissues were collected and stained with an anti-Brdu antibody.

BALB/c pancreatic islets = test: Insulin secretion of isolated islets in low and high glucose (EIA/ELISA); type: cell-based, mouse; settings: 3 days culture, LSF 50 μM, Ex-4 20 nM, 3 mM then 28 mM glucose, one-hour incubation
Protocol: FIG. 1 depicts the amount of insulin in the supernate sample as determined by EIA after one-hour incubation with each of 3 mM and subsequent 28 mM glucose medium.
(§1) For in vitro studies (Examples 1-3), freshly isolated BALB/c pancreatic islets were incubated at 37° C. with either LSF (50 μM) alone, Ex-4 (20 nM) alone, or with LSF/Ex-4 combined. After 3 days of culture, islets were treated with or without pro-inflammatory cytokines (10 ng/mL IL-1β, 20 ng/mL TNF-α, and 100 ng/mL IFN-γ) overnight. Insulin secretion was measured in low and high glucose using a standard elisa method for mouse insulin. Apoptotic islets were quantitatively assessed. MTT assay was used to evaluate cell metabolism and mitochondrial function.
(See FIG. 1 in which “*” and “^” indicate P<0.005 compared to “none” treatment group).

murine β-cell lines = settings: previously published; cited from earlier work
[3] = test system: mouse islets exposed to pro-inflammatory cytokines (IL-1β, TNF-α, IFN-γ); test: Apoptosis of mouse islets exposed to pro-inflammatory cytokines; type: cell-based; settings: LSF 50 μM, Ex-4 20 nM; 10 ng/mL IL-1β, 20 ng/mL TNF-α, 100 ng/mL IFN-γ overnight
Protocol: FIG. 2 depicts the effect in apoptosis reduction in isolated mouse islets after individual and combined treatment of LSF and Ex-4 in vitro.
as §1
Cellular death (apoptosis) was quantified using an established method in mouse islets exposed to pro-inflammatory cytokines.

human islets = settings: previously published; cited from earlier work
[4] = test system: non-obese diabetic (NOD) mice; test: Reversal of established diabetes in NOD mice, blood glucose monitoring, 28-day osmotic mini-pump; type: in vivo, mouse; settings: LSF 27 mg/kg/day, Ex-4 18 nM/day
Protocol: FIG. 4 depicts average levels of blood glucose in 4 NOD mice groups treated with saline (control), Ex-4 alone, LSF alone and LSF and Ex-4 combined, respectively.
Pre-diabetic non-obese diabetic (NOD) mice were monitored until two consecutive blood glucose readings within a week were above 250 mg/dL. This indicated the animals had already become diabetic. At this point a mini-osmotic pump was filled with one of the following and implanted subcutaneously: • Normal saline (control) • Ex-4 • LSF • Ex-4 and LSF
Blood glucose levels in these mice were monitored, and a small dose of insulin was administered to the hyperglycemic mice to maintain euglycemia for the first few days. The pump was removed after 28 days, discontinuing treatment with the drug; however, the blood glucose levels were continually monitored for several more weeks. These mice were then sacrificed, and slide sections were prepared from their pancreases to evaluated histology and insulin staining (Example 5) and evidence for growth the new beta cells (Example 6).
These NOD were spontaneously diabetic between 20-25 weeks of age. The control groups include normal saline, LSF alone (27 mg/kg/day) and Ex-4 alone (18 nM/day). […] Four mice were in each group. Diabetes reversal was seen within 2-3 days after implantation of LSF/Ex-4 pumps, while hyperglycemia was controlled 10-12 days after LSF alone pump therapy.

mouse islets = test: MTT assay of cell metabolism and mitochondrial function in isolated islets; type: cell-based; settings: LSF 50 μM, Ex-4 20 nM
Protocol: FIG. 3 depicts the effect of mitochondrial metabolism (as reflected by level of MTT metabolite) observed in isolated mouse islets after individual and combined treatment with LSF and Ex-4.
as §1
We previously published, in murine β-cell lines and human islets that both ATP production and mitochondrial metabolism (MTT metabolite levels) were increased by LSF treatment.

| Molecule | effect on hyperglycemia [1] | Brdu-positive cells in pancreatic tissue [2] | insulin release upon glucose stimulation (BALB/c pancreatic islets) | ATP production and mitochondrial metabolism (MTT metabolite levels) (murine β-cell lines) | protection of islet cells from pro-inflammatory cytokines [3] | ATP production and mitochondrial metabolism (MTT metabolite levels) (human islets) | time after pump implantation until diabetes reversal / hyperglycemia controlled ([4]; diabetic NOD mice, S.C. mini-pump) [days] | diabetes reversal / control of hyperglycemia during pump therapy ([4]; newly diagnosed diabetic NOD mice, S.C. osmotic mini-pump, 28 days) | mitochondrial metabolism (MTT metabolite level) (mouse islets) |
| --- | --- | --- | --- | --- | --- | --- | --- | --- | --- |
| glucagon-like peptide-1 (HAEGTFTSDVSSYLEGQAAKEFIAWLVKGR; ends and bridges not checked; UniProt P01275 98-127, looked up) [GLP-1, "incretin synthesized in the small and large intestine by the L-type cells ... released in response to food ingestion"] | no effect | – | – | – | – | – | – | – | – |
| C[C@@H](O)CCCCn1c(=O)c2c(ncn2C)n(C)c1=O [LSF, Lisofylline] | – | detected | increase insulin release | increased | could protect isolated islet cells | increased | 10 to 12 | moderate ability to control blood glucose levels; also recorded: prevented worsening of hyperglycemia | increase mitochondrial metabolism |
